# According to publication PMC5569033 (2017):
# Key:
# [1] = system: Tyr1M1 (RNA, aptamer) GGAUGUAACUGAAUGAAAUGGUGAAGGACGGGUCCAGCCCUUGGCAGUCAACUCGUGCGAUCGUGAAAACGGGGCAAGAUGGCCUUACAGCGGUCAAUACGGGGGUCAUCAGAUAGGGAGGCCAGGAUAUGUUGAGUAGAGUGUGAGCUCCGUAACUAGUUACAUC; assay: dye fluorescence in droplets; conditions: 200 mM KCl, 10 mM NaCl, 10 mM MgCl2; 100 mM Tris pH 7.5; 30 μM RNA, 3 μM dye; salmon sperm DNA; with secreted tyrosine
# [2] = system: Spinach2-Streptavidin aptamer (Streptavidin (SA)) (RNA, aptamer) GAUGUAACUGAAUGAAAUGGUGAAGGACGGGUCCACGACCGACCAGAAUCAUGCAAGUGCGUAAGAUAGUCGCGGGCCGGGGUUGUUGAGUAGAGUGUGAGCUCCGUAACUAGUUACAUC; assay: dye fluorescence, plate reader; conditions: 200 mM KCl, 10 mM NaCl, 1 mM MgCl2; 100 mM Tris pH 7.5, 25 °C, 14 h; 10 μM RNA, 2 μM dye; with streptavidin
# [3] = system: Tyr1M1 (RNA, aptamer) GGAUGUAACUGAAUGAAAUGGUGAAGGACGGGUCCAGCCCUUGGCAGUCAACUCGUGCGAUCGUGAAAACGGGGCAAGAUGGCCUUACAGCGGUCAAUACGGGGGUCAUCAGAUAGGGAGGCCAGGAUAUGUUGAGUAGAGUGUGAGCUCCGUAACUAGUUACAUC; assay: Spinach sensor fluorescence turn-on; conditions: 125 mM KCl, 5 mM MgCl2; 50 mM Tris-HCl pH 7.5; 2 μM DFHBI or DFHBI-1T; 1 mM ligand; 10 μM RNA
binding [1],binding [2],binding [3],SMILES
yes,yes,–,CC1=N/C(=C\c2cc(F)c(O)c(F)c2)C(=O)N1CC(F)(F)F
–,–,yes,N[C@@H](Cc1ccc(O)cc1)C(=O)O
